The target of data set [1] is fungal tyrosinase. In words: in vitro test of inhibition of tyrosinase activity. It is filed as biochemical. The note with it: L-tyrosine with L-dopa co-substrate, pH 6.5, 25° C., dopachrome at 475 nm, read-out: IC 50 (content leading to 50% inhibition of the tyrosinase). An excerpt: The di- and tri-caffeoylquinic acids corresponding to general formula (I) have been studied comparatively with caffeic acid in equivalent molar quantities in the in vitro inhibition test of tyrosinase activity.
In this test, visible spectrometry at 475 mn is used to monitor the quantity of dopachrome formed during the chain of reactions by which tyrosine is transformed into melanins. These reactions are catalyzed in vitro using fungal tyrosinase in the presence of a reducing co-substrate (e.g., a small quantity of L-dopa) in order to initiate the hydroxylation reaction of L-tyrosine into L-dopa, which is then catalytically oxidized into dopaquinone, and then into dopachrome which is, an intermediate product, prior to the non-enzymatic oxidation reactions leading to melanin formation.
Accordingly, the concentration of dopachrome formed over time is measured in the presence and absence of the inhibitor.
The inhibition effect is expressed by the lowering of the maximum quantity of dopachrome formed (value of the optical density at 475 nm read on the flat part of the curve) in relation to the quantity obtained in the absence of the inhibitor.
For each compound, the content in micromoles per liter leading to 50% inhibition of the tyrosinase (IC 50) is measured.
A--Phosphate buffer 0.1M pH=6.5 (composition for 200 ml of buffer: 68.5 ml of NaH2 PO4 0.2M+31.5 ml of Na2 HPO4 0.2M+100 ml of water)
B--Mother solution of L-tyrosine at 2×10^-3 M in A
C--Mother solution of L-dopa at 10^-4 M in A
D--Mother solution of fungal tyrosinase at 2,400 units/ml in A
E--Mother solution of the inhibitor at 10^-2 M in ethanol (solutions C and D must be prepared the same day).
homogenize and establish equilibrium at 25° C.
add 0.05 ml of D to the test trough
mix rapidly and observe the kinetics by measuring absorption at 475 nm as a function of time.

The conditions of data set [2]: background statement; cited from earlier work.
The test system of data set [3] is melanocytes. The note with it: background statement; cited from earlier work.

For `O=C(C=Cc1ccc(O)c(O)c1)OC1CC(O)(C(=O)O)CC(O)C1OC(=O)C=Cc1ccc(O)c(O)c1` (centres unmarked) [4,5-di-caffeoylquinic acid], the IC50 in data set [1] was found to be 45 µM. Still for that read-out and setting: with `O=C(C=Cc1ccc(O)c(O)c1)OC1CC(O)(C(=O)O)CC(OC(=O)C=Cc2ccc(O)c(O)c2)C1O` (centres unmarked) [3,5-di-caffeoylquinic acid] the figure was 52 µM; with `O=C(C=Cc1ccc(O)c(O)c1)OC1CC(OC(=O)C=Cc2ccc(O)c(O)c2)(C(=O)O)CC(O)C1O` (centres unmarked) [1,3-di-caffeoylquinic acid], 47 µM; with `O=C(C=Cc1ccc(O)c(O)c1)OC1CC(O)(C(=O)O)CC(O)C1OC(=O)C=Cc1ccc(O)c(O)c1` (centres unmarked) [3,4-di-caffeoylquinic acid], 85 µM.

Regarding `Oc1ccc(O)cc1` [hydroquinone], the irritation result in data set [2] is recorded as “especially irritating”. Besides, the cytotoxicity for melanocytes result in data set [3] is “cytotoxic for melanocytes”.

As for `O=C(C=Cc1ccc(O)c(O)c1)OC1CC(O)(C(=O)O)CC(OC(=O)C=Cc2ccc(O)c(O)c2)C1OC(=O)C=Cc1ccc(O)c(O)c1` (centres unmarked) [3,4,5-tri-caffeoylquinic acid], the IC50 in data set [1] was 29 µM. Still for that read-out and setting: with `O=C(O)/C=C/c1ccc(O)c(O)c1` [Caffeic acid, reference compound] the figure was 530 µM.

These data come from patent publication US5395624A, “Depigmenting cosmetic and/or dermatological composition containing a di- or tri-caffeoylquinic acid, or a mixture thereof” (L'Oreal, priority 1992, dated 1995).
